Laboratory results taken from patent US20060058328A1, “Use of N-aryl diazaspiracyclic compounds in the treatment of addiction” (priority 2004, published 2006).

Columns and labels:
rats = experiment: Fourteen-day preclinical safety pharmacology study; format: in vivo
α4β2 subtype = α4β2 subtype (Homo sapiens, UniProt P17787+P43681); experiment: In vitro pharmacology: antagonism at the α4β2 subtype; format: biochemical
Text: (§1) Such disorders include substance abuse, tobacco use and weight gain that accompanies drug cessation.

[1] = tested on: NNR subtypes affecting dopamine release; experiment: Antagonism of dopamine release; format: biochemical; conditions: in vitro
Method: Dopamine release was measured using the techniques described in U.S. Pat. No. 5,597,919 to Dull et al. Release is expressed as a percentage of release obtained with a concentration of (S)-(−)-nicotine resulting in maximal effects. Reported EC50 values are expressed in nM, and Emax values represent the amount released relative to (S)-(−)-nicotine on a percentage basis.
Antagonism of dopamine release can also be evaluated using the assays described in Gradyet al., “Characterization of nicotinic receptor mediated [3H]dopamine release from synaptosomes prepared from mouse striatum,” J. Neurochem. 59: 848-856 (1992) and Soliakov and Wonnacott, “Voltage-sensitive Ca^2+ channels involved in nicotinic receptor-mediated [3H]dopamine release from rat striatal synaptosomes,” J. Neurochem. 67:163-170 (1996).
as §1

Chain of α4β2 subtype (P43681 29-627 limits assumed): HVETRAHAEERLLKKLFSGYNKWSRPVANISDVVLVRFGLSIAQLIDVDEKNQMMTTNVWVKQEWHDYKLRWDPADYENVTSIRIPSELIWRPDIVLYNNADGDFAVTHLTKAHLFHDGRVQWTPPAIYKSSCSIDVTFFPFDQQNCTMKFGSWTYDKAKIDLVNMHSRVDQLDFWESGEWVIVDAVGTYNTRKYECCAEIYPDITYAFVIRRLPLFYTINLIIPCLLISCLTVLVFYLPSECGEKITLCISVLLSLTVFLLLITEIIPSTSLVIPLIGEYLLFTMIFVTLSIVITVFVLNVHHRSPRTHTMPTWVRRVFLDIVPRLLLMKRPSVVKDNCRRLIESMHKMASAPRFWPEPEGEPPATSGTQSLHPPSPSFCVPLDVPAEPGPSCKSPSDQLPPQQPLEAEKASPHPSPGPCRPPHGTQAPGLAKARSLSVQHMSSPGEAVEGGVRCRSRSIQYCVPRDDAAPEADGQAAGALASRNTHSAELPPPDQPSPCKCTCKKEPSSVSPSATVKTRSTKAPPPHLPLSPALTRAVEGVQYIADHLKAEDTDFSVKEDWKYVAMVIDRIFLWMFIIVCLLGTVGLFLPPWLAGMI
Chain of α4β2 subtype (P17787 26-502): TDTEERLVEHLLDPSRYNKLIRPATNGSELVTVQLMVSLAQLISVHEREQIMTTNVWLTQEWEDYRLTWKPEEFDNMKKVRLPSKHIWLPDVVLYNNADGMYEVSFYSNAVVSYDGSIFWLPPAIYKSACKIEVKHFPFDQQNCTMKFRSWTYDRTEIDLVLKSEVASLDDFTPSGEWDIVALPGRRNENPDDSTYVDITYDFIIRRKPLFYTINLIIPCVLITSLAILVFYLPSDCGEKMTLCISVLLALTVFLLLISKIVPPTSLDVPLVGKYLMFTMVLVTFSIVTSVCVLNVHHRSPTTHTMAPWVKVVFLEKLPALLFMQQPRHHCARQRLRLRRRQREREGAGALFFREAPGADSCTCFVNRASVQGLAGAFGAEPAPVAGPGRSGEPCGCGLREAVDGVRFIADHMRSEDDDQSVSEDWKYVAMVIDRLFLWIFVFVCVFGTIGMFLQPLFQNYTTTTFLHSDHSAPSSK

- Imax, antagonist at the α4β2 subtype (α4β2 subtype): 50%
- IC50 (α4β2 subtype; read-out: IC50, antagonist at the α4β2 subtype): 193 µM
- IC50 ([1]; read-out: IC50, antagonist at NNR subtypes affecting dopamine release): 0.901 µM
Compound: Cl.Cl.c1cncc(N2CCC3(CCCN3)C2)c1 (stereo not drawn) [Sample 1, 7-(3-pyridyl)-1,7-diazaspiro[4.4]nonane dihydrochloride]
- stimulant sensitization properties (rats): without demonstrating stimulant sensitization properties
- weight gain in rats (rats): reduced weight gain
- Imax, antagonist at NNR subtypes affecting dopamine release [1]: 67%
